Data on seven molecules can be found in PMC6503114, “Application of Antimicrobial Peptides of the Innate Immune System in Combination With Conventional Antibiotics—A Novel Way to Combat Antibiotic Resistance?” (Frontiers in Cellular and Infection Microbiology, 2019).

In data set [1] the test system is E. coli ML-35p. As to the kind of experiment: Bacterial membrane permeabilization assay, inner membrane (ONPG). To be noted: ONPG marker; for effect on cytoplasmic membrane permeability, substance alone (in words): ¼ MIC. Type of data set: cell-based, Escherichia coli. From the text: The method is based on the certain features of the specifically designed E. coli ML-35p bacterial strain. As its parental strain E. coli ML-35, this bacterium constitutively expresses cytoplasmic β-galactosidase, but is unable to transport β-galactoside containing substrates through the inner membrane in normal circumstances due to the lack of lactose permease. […] If the cytoplasmic membrane of the bacterium is damaged, the chromogenic marker o-nitrophenyl-β-D-galactoside (ONPG) penetrates into the cell and, when digested by bacterial β-galactosidase, produces a colored product o-nitrophenol. The accumulation of the latter can be spectrophotometrically detected at a wavelength of 420 nm.
Escherichia coli ML-35p was cultivated in the sterile 3% Trypticase soy broth (TSB) for 18 h at 37°C, then washed three times with 10 mM sodium phosphate buffer, pH 7.4 (10 min centrifugation at 600 g and 4°C), diluted up to the OD of 0.4 at 620 nm (1 × 10^8 CFU/ml concentration), and used immediately or kept on ice until the start of the test. […] Controls contained equivalent volume of acidified water instead of antimicrobial agent(s). The assay was started by adding the bacteria and was run at 37°C, with periodical shaking. Optical density (OD) measurement at 420 nm was performed every minute for 1–2 h using SpectraMax 250 Microplate Spectrophotometer (Molecular Devices, USA) and its SoftMax PRO software.
(A) Permeability of the inner membrane for a chromogenic marker o-nitrophenyl-β-D-galactoside (ONPG). ¼ of minimal inhibitory concentrations (MICs) of antimicrobial peptides (AMPs) and antibiotics were used when alone, and ¼ MIC of AMP + ¼ MIC of antibiotic when in combination. Curves illustrate ONPG degradation by the cytoplasmic β-galactosidase of bacteria, when the membranes are damaged by test substances. Curves slope and the time of their rising to the plateau correspond to the extent of this damage. […] Nitrocefin is a substrate for the periplasmic β-lactamase of the bacteria. RIF, rifampicin; PMB, polymyxin B; GEN, gentamicin; OFL, ofloxacin; OX, oxacillin.

Data set [2] has as its system E. coli ML-35p. In words: microbe, parasite or virus in culture. Type of data set: cell-based, Escherichia coli. To be noted: median of 3–6 experiments, value in square brackets = twice the maximal tested concentration, read-out: MIC.
The subject of data set [3] is S. aureus 1399/17. In words: Checkerboard titration (FICI). The class given is cell-based, Staphylococcus aureus. On the procedure: (§1) The combined antimicrobial action of AMPs and other antimicrobial compounds was assessed using checkerboard titration approach under the conditions similar to that of the microdilution assay. According to checkerboard titration template, one component (A) of the combination was diluted along the rows of the plate, while the other (B) was diluted down the columns, thereby creating the variety of mixtures with different concentrations of tested compounds. 2.5 μl of corresponding solutions of the components A and B were added into each well of the plate. Into the first column and the last row the same amount of 10 mM sodium phosphate buffer, pH 7.4, containing 0.1% of BSA was introduced instead of the second component. Thus, all wells contained 5 μl of antimicrobial compounds solutions (solo or in combination). The same volume of bacterial suspension, prepared as described for microdilution assay, was added into each well. The results were recorded after the overnight incubation, visually indicating the presence or absence of the microbial growth in the corresponding wells. Based on the obtained data the isobolograms of combined action were plotted and/or Fractional Inhibitory Concentration Indices (FICI) were calculated. […] Depending on the minimal value of the FICI the combined effect of the combination was classified as antagonism (FICI > 2), independent action (1 < FICI ≤ 2), additivity (0.5 < FICI ≤ 1) or synergy (FICI ≤ 0.5), as is recommended in the literature and due to some drawbacks of the serial dilution method (Hsieh et al., [1993]; Orhan et al., [2005]; Fehri et al., [2007]). FICIs were assessed in 3–6 independent experiments and median values were used to define the nature of interaction.

Data set [4] concerns E. coli ESBL 521/17. As to the kind of experiment: Checkerboard titration (FICI). The class given is cell-based, Escherichia coli. On the procedure: as §1
The test system of data set [5] is A. baumannii 7226/16. In words: Checkerboard titration (FICI). The class given is cell-based, Acinetobacter baumannii. The procedure: as §1
The test system of data set [6] is K. pneumoniae ESBL 344/17. In words: microbe, parasite or virus in culture. The note with it: Klebsiella pneumoniae, ESBL344/17; K. pneumoniae ESBL 344/17, drug-resistant clinical isolate. The class given is cell-based. On the procedure:
(§2) Prior to the “checkerboard” synergy test the minimal inhibitory concentrations (MIC) of individual substances were determined using broth microdilution assay. Testing was performed in 60-well polystyrene Terasaki microplates with V-shaped bottom generally according to the guidelines of the European Committee for Antimicrobial Susceptibility Testing with subtle modifications designed for AMP testing (Tossi et al., [1997]; Wiegand et al., [2008]). Cultivation of bacteria was carried out in 2.1% Müller-Hinton broth at 37°C with shaking. Two-fold serial dilutions of peptides, antibiotics and other antimicrobials were made with 10 mM sodium phosphate buffer, pH 7.4, containing 0.1% of BSA. The plates were preliminary incubated with 0.1% BSA for 1 h at 37°C to reduce a non-specific binding of peptides to the plates. After that BSA was removed, and serial dilutions were added into the plate wells in triplicates followed by the same volume of the suspension of bacterial cells in logarithmic phase of growth in concentration of 1 × 10^6 CFU/ml. After the 18 h overnight incubation at 37°C, the MIC value for each compound was determined as its lowest concentration completely inhibiting the visible growth of bacteria. The final results were calculated as median values based on 3–6 independent experiments.

Data set [7] deals with P. aeruginosa MDR 522/17. In words: microbe, parasite or virus in culture. Type of data set: cell-based. The note with it: Pseudomonas aeruginosa, MDR522/17; P. aeruginosa MDR 522/17, drug-resistant clinical isolate. On the procedure: as §2
The subject of data set [8] is E. coli ESBL 521/17. As to the kind of experiment: microbe, parasite or virus in culture. The class given is cell-based. To be noted: Escherichia coli, ESBL521/17; E. coli ESBL 521/17, drug-resistant clinical isolate; square brackets = twice the maximal tested concentration. The procedure: as §2
The test system of data set [9] is S. aureus 1399/17. In words: microbe, parasite or virus in culture. Type of data set: cell-based. To be noted: Staphylococcus aureus; S. aureus 1399/17, drug-resistant clinical isolate; read-out: MIC. The procedure:
as §2

For data set [10], the system named is A. baumannii 7226/16. As to the kind of experiment: microbe, parasite or virus in culture. The class given is cell-based. The note with it: Acinetobacter baumannii; A. baumannii 7226/16, drug-resistant clinical isolate. The procedure: as §2
Data set [11] deals with P. aeruginosa MDR 522/17. In words: Checkerboard titration (FICI). Type of data set: cell-based, Pseudomonas aeruginosa. The procedure:
as §1

The subject of data set [12] is K. pneumoniae ESBL 344/17. As to the kind of experiment: Checkerboard titration (FICI). Type of data set: cell-based, Klebsiella pneumoniae. On the procedure: as §1
The mark [13] stands for this setting: antibiotic in combination with ChBac3.4.
Where [14] appears, read: antibiotic in combination with PG-1.

≈ marks a conversion by molar mass, not a printed value. Read-outs that look alike come from different tables or passages of the source. Marks after values point to notes of the source that are not given here. Where no end group is shown, it is not given here.

Turning to `CNC(C)C1CCC(N)C(OC2C(N)CC(N)C(OC3OCC(C)(O)C(NC)C3O)C2O)O1` (stereo not shown) [Gentamicin], the “effect on cytoplasmic membrane permeability, substance alone (in words)” value (from here on “effect … substance alone (in words)”) in the data set with E. coli ML-35p [1] is “no substantial increase”. For the same molecule, the MIC in the data set with E. coli ML-35p [2] (Escherichia coli, ML35P) was 0.625 µM (≈ 0.299 µg/mL).
For `CC[C@H](C)[C@H](NC(=O)[C@H](CCCCN)NC(=O)[C@H](CCC(=O)O)NC(=O)[C@H](CCCCN)NC(=O)[C@H](CO)NC(=O)[C@H](CCCCN)NC(=O)[C@H](CCCNC(=N)N)NC(=O)[C@H](Cc1ccccc1)NC(=O)[C@H](Cc1ccccc1)NC(=O)[C@H](CC(=O)O)NC(=O)CNC(=O)[C@H](CC(C)C)NC(=O)[C@@H](N)CC(C)C)C(=O)NCC(=O)N[C@@H](CCCCN)C(=O)N[C@@H](CCC(=O)O)C(=O)N[C@@H](Cc1ccccc1)C(=O)N[C@@H](CCCCN)C(=O)N[C@@H](CCCNC(=N)N)C(=O)N[C@H](C(=O)N[C@H](C(=O)N[C@@H](CCC(N)=O)C(=O)N[C@@H](CCCNC(=N)N)C(=O)N[C@H](C(=O)N[C@@H](CCCCN)C(=O)N[C@@H](CC(=O)O)C(=O)N[C@@H](Cc1ccccc1)C(=O)N[C@@H](CC(C)C)C(=O)N[C@@H](CCCNC(=N)N)C(=O)N[C@@H](CC(N)=O)C(=O)N[C@@H](CC(C)C)C(=O)N[C@H](C(=O)N1CCC[C@H]1C(=O)N[C@@H](CCCNC(=N)N)C(=O)N[C@H](C(=O)N[C@@H](CCC(=O)O)C(=O)N[C@@H](CO)C(=O)O)[C@@H](C)O)C(C)C)[C@@H](C)CC)C(C)C)[C@@H](C)CC` [LL-37], in the data set on E. coli ML-35p [1] (¼ MIC + ¼ MIC gentamicin), the “effect on cytoplasmic membrane permeability in presence of gentamicin vs peptide/protein alone (in words)” value is “developing rather quickly”. Besides, in the data set with E. coli ML-35p [1], the “effect … substance alone (in words)” value is “quite slow enhance of the membrane permeability”.
As for “RFRLPFRRPPIRIHPPPFYPPFRRFL-NH2 (C-terminus assumed) [ChBac3.4]”, in the data set on E. coli ML-35p [1] (¼ MIC + ¼ MIC rifampicin), the “development of membrane-damaging effect in combination with rifampicin (in words)” value is “slight acceleration”. Moreover, the “effect … substance alone (in words)” value with E. coli ML-35p [1] is given as “no substantial effect”.
`Cc1onc(-c2ccccc2)c1C(=O)N[C@@H]1C(=O)N2[C@@H]1SC(C)(C)[C@@H]2C(=O)O` [Oxacillin]: the “Minimal FICI” value is listed as 0.25^* with S. aureus 1399/17 [3] (setting [13]); 1.12 with S. aureus 1399/17 [3] (setting [14]); 1.12 with E. coli ESBL 521/17 [4] (setting [13]); 1.12 in the data set on E. coli ESBL 521/17 [4] (setting [14]); 1.12 in the data set with A. baumannii 7226/16 [5] (setting [13]); 0.75 with A. baumannii 7226/16 [5] (setting [14]). Besides, the “Minimal FICI” value (with P. aeruginosa MDR 522/17 [11] (setting [13]); with P. aeruginosa MDR 522/17 [11] (setting [14]); in data set [12] (setting [13]); in data set [12] (setting [14])) was 1.12 each time. Further, the MIC in data set [6] is above 50 µM; with P. aeruginosa MDR 522/17 [7], above 50 µM; in the data set on E. coli ESBL 521/17 [8] it was above 50 µM; in the data set on S. aureus 1399/17 [9] it was above 50 µM; in the data set on A. baumannii 7226/16 [10] it was above 50 µM; with E. coli ML-35p [2] (Escherichia coli, ML35P), above 250 µM.
For the molecule Polymyxin B, the MIC in the data set with E. coli ML-35p [2] stood at 0.4 µM.
With `CO[C@H]1/C=C/O[C@@]2(C)Oc3c(C)c(O)c4c(O)c(c(/C=N/N5CCN(C)CC5)c(O)c4c3C2=O)NC(=O)/C(C)=C\C=C\[C@H](C)[C@H](O)[C@@H](C)[C@@H](O)[C@@H](C)[C@H](OC(C)=O)[C@@H]1C` [Rifampicin], in the data set on E. coli ML-35p [2] (Escherichia coli, ML35P), the MIC is 10 µM (≈ 8.23 µg/mL).
For the molecule `CC1COc2c(N3CCN(C)CC3)c(F)cc3c(=O)c(C(=O)O)cn1c23` (stereo not shown) [Ofloxacin], the “Minimal FICI” value with S. aureus 1399/17 [3] (setting [13]) was 0.125^*; in the data set with S. aureus 1399/17 [3] (setting [14]) it was 0.56; in the data set on E. coli ESBL 521/17 [4] (setting [13]) it was 0.75; in the data set on E. coli ESBL 521/17 [4] (setting [14]), 0.75; in the data set with A. baumannii 7226/16 [5] (setting [13]), 0.5^*; in the data set on A. baumannii 7226/16 [5] (setting [14]) it was 0.62. The “Minimal FICI” value in the data set on P. aeruginosa MDR 522/17 [11] (setting [13]) came to 0.75; with P. aeruginosa MDR 522/17 [11] (setting [14]), 1.12; in [12] (setting [13]) it was 0.75; in data set [12] (setting [14]), 0.5. Further, the MIC in data set [6] was 0.25 µM; with P. aeruginosa MDR 522/17 [7] it was above 50 µM; with E. coli ESBL 521/17 [8], 50 µM; with S. aureus 1399/17 [9], above 50 µM; in the data set on A. baumannii 7226/16 [10], 25 µM; with E. coli ML-35p [2] (Escherichia coli, ML35P), 0.125 µM (≈ 0.0452 µg/mL).
